Test results from article PMC5404925, “Variation in olfactory neuron repertoires is genetically controlled and environmentally modulated” (eLife, 2017).

Columns and labels:
Olfr347 = target: T1, Olfr347 (Mus musculus, UniProt Q8VGK2); assay: CRE-luciferase reporter dose-response (Dual-Glo); assay type: cell-based; conditions: agonist; 1 nM to 1 mM, 4 h stimulation; RTP1S and M3-R co-expressed; Hana3A cells
T1 construct: gene Or1j18; full-length OR, probably N-terminal RHO tag (tag-only control), in HEK293T-derived Hana3A cells with RTP1S and M3-R
T1 sequence (Q8VGK2 1-312): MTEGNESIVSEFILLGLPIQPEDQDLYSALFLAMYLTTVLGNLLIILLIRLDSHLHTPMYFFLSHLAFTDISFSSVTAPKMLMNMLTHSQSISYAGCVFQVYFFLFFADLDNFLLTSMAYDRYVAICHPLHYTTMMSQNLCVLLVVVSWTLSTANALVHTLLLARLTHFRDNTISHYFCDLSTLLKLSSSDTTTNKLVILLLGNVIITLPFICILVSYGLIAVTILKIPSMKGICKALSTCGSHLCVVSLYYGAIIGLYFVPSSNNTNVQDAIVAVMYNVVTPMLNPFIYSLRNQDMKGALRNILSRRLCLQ

Olfr538 = target: T2, Olfr538 (Mus musculus, UniProt Q7TRT5); assay: CRE-luciferase reporter dose-response (Dual-Glo); assay type: cell-based; conditions: agonist; 1 nM to 1 mM, 4 h stimulation; RTP1S and M3-R co-expressed; Hana3A cells
T2 construct: gene Or13a24; full-length OR, probably N-terminal RHO tag (tag-only control), in HEK293T-derived Hana3A cells with RTP1S and M3-R
T2 sequence (Q7TRT5 1-310): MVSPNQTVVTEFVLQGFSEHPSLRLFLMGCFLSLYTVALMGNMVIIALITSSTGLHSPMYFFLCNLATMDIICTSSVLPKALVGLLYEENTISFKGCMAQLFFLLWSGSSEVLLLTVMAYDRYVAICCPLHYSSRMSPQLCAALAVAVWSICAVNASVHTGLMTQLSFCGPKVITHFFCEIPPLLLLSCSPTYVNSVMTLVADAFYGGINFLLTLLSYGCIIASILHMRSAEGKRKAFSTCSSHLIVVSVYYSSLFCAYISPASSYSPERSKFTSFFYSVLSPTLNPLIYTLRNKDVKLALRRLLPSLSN

C=C(C)[C@@H]1CC=C(C)C(=O)C1 [(R)-carvone]
CRE-luciferase reporter dose-response (Dual-Glo) (Olfr347): Dose-response curve for HEK293 cells expressing Olfr347 (black) challenged with increasing concentrations of (R)-carvone | CRE-luciferase reporter dose-response (Dual-Glo) (Olfr538): Olfr538 displayed a dose-dependent response to (R)-carvone
